ChEMBL document CHEMBL4266064, “B-973, a Novel α7 nAChR Ago-PAM: Racemic and Asymmetric Synthesis, Electrophysiological Studies, and in Vivo Evaluation” (ACS Med Chem Lett, 2018)
Active and inactive are the calls of the source. The calls are words filed in the database; no cut-off is given here.

How the values were obtained:
Mus musculus [1] = assay: Antinociceptive activity in formalin-induced nociception pain ICR mouse model assessed as reduction in time spent licking in hind paw at 10 mg/kg, ip administered 15 mins prior to formalin challenge measured after 20 to 45 mins in presence of alpha7 nAChR antagonist MLA; assay type: functional, organism-based
[2] = target: Neuronal acetylcholine receptor subunit alpha-7 (Homo sapiens) (UniProt P36544); assay: (§1) Positive allosteric modulation of human alpha7 nAChR expressed in Xenopus laevis oocytes assessed as increase in acetyl choline-evoked currents at 10 uM pretreated followed by co-treatment with acetyl choline for 21 secs and subsequent compound washout measured after 181 secs by electrophysiology method; assay type: cell-based
Mus musculus [3] = assay: Antinociceptive activity in formalin-induced nociception pain ICR mouse model assessed as reduction in time spent licking in hind paw at 10 mg/kg, ip administered 15 mins prior to formalin challenge measured up to 5 mins; assay type: functional, organism-based
Mus musculus [4] = assay: Antinociceptive activity in formalin-induced nociception pain ICR mouse model assessed as reduction in time spent licking in hind paw at 10 mg/kg, ip administered 15 mins prior to formalin challenge measured up to 5 mins in presence of alpha7 nAChR antagonist MLA; assay type: functional, organism-based
Mus musculus [5] = assay: Antinociceptive activity in formalin-induced nociception pain ICR mouse model assessed as reduction in paw edema at 3 to 10 mg/kg, ip administered 15 mins prior to formalin challenge measured after 1 hr by calliper method; assay type: functional, organism-based
[6] = target: Neuronal acetylcholine receptor subunit alpha-7 (Homo sapiens) (UniProt P36544); assay: as §1, with “100” for “10”; assay type: cell-based
Mus musculus [7] = assay: Antinociceptive activity in ip dosed formalin-induced nociception pain ICR mouse model assessed as reduction in time spent licking in hind paw administered 15 mins prior to formalin challenge measured after 20 to 45 mins; assay type: functional, organism-based
[8] = target: Neuronal acetylcholine receptor subunit alpha-7 (Homo sapiens) (UniProt P36544); assay: Positive allosteric modulation of human alpha7 nAChR expressed in Xenopus laevis oocytes assessed as increase in acetyl choline-evoked currents at 10 to 100 uM treated for 21 secs followed by compound washout measured after 181 secs by electrophysiology method; assay type: cell-based

Sequence of Neuronal acetylcholine receptor subunit alpha-7 (Homo sapiens) (P36544 whole entry): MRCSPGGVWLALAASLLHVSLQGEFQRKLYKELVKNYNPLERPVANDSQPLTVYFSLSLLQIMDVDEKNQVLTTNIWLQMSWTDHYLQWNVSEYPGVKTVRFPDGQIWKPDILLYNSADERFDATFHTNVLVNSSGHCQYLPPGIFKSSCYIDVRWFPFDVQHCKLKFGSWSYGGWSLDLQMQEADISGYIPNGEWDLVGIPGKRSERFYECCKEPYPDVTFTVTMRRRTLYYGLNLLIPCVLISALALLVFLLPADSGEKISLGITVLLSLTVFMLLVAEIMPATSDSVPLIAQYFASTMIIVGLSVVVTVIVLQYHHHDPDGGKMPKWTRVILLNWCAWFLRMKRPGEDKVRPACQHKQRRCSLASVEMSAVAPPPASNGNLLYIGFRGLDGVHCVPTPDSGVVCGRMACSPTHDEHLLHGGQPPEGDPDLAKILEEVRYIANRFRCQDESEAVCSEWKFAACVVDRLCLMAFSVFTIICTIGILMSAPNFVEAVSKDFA

| Activity [2] | Activity [6] | Activity [8] | SMILES | Activity (Mus musculus [1]) | Activity (Mus musculus [3]) | Activity (Mus musculus [4]) | Activity (Mus musculus [5]) | Activity (Mus musculus [7]) |
| --- | --- | --- | --- | --- | --- | --- | --- | --- |
| Active | Active | Active | C[C@H](NC(=O)CCc1ccc(F)c(F)c1)c1cncc(N2CCN(c3ccccn3)CC2)n1 | inactive | Active | inactive | Active | Dose-dependent effect |
| – | inactive | inactive | C[C@@H](NC(=O)CCc1ccc(F)c(F)c1)c1cncc(N2CCN(c3ccccn3)CC2)n1 | – | – | – | – | – |
